Laboratory results from article PMC8698759, “Gold(I) Complexes Bearing Alkylated 1,3,5-Triaza-7-phosphaadamantane Ligands as Thermoresponsive Anticancer Agents in Human Colon Cells” (Biomedicines, 2021).
Read-outs that look alike come from different tables or passages of the source.

Columns and labels:
[1] = system: caspase-3 in Caco-2 cells; assay: Determination of active caspase-3 by flow cytometry; type: cell-based, human; details: Caco-2, 48 h; 3a 5.0 µM, 3b 10.2 µM
Procedure: Caco-2 cells were seeded in 75 cm^2 flask at a density of 1 × 10^4 cells/cm^2 and, 24 h later, exposed to drug panel for 48 h. Then cells were collected and processed following instructions by Sánchez-de-Diego et al. Finally, 50 µL of every sample were incubated with 5 µL anti-active caspase-3 (BD Pharmigen, Clone C92-605) and 5 µL p53 antibody (Miltenyi, Clone REA609).

Recombinant Human TrxR1 = target: T1, Recombinant Human TrxR1 (Homo sapiens, UniProt Q16881); assay: Thioredoxin reductase 1 (TrxR1) activity assay; type: biochemical; details: auranofin 25 µM; 3a and 3b at IC50 concentrations
T1 construct: purchased Sigma-Aldrich SRP6081
T1 sequence (Q16881 151-649 limits assumed): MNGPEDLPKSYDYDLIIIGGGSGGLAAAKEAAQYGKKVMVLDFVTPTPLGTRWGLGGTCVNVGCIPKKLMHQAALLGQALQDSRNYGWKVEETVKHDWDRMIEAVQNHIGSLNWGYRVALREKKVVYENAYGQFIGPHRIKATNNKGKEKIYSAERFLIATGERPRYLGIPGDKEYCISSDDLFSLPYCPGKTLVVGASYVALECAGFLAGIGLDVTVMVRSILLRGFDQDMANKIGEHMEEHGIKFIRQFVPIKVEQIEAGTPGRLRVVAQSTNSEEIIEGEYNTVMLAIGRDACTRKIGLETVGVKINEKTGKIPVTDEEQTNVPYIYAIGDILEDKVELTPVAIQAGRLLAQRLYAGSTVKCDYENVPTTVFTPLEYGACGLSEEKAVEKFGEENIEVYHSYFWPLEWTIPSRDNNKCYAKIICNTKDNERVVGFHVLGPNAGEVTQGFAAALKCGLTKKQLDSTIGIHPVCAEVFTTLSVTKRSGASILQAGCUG
Procedure: Recombinant Human TrxR1 (Sigma-Aldrich SRP6081, St. Louis, MO, USA) was incubated in a 96 well plate with different concentration of Au complex previously dissolved in 25 μL of PBS at pH 7.4. The cell solution was incubated in shake motion for 5 min at 37 °C. After incubation time, procedure in Thioredoxin Reductase Assay Kit (Sigma-Aldrich CS0170, St. Louis, MO, USA) was followed. Finally, reaction was started by adding 6 μL DNTB and absorbance at 405 nm was recorded every 30 s for 22 min as a measure of Thioredoxin Reductase Activity.

Caco-2 cells = assay: Mitochondrial membrane potential assay by flow cytometry (DilC1); type: cell-based, human; details: Caco-2, 48 h; 3a 5.0 µM, 3b 10.2 µM
Procedure: Caco-2 cells were seeded in 75 cm^2 flasks at a density of 1 × 10^4 cells/cm^2 and 24 h post-seeding medium was replaced with medium containing drug panel and incubated for 48 h. Then. cells were washed twice and resuspended in PBS at a concentration of 10^6 cells/mL before incubation with 5 µL of 10 µM 1,1′,3,3,3′-hexamethylindodicarbo-cyanine iodide (DilC1).

Human fibroblast cells = assay: MTT cytotoxicity assay on fibroblasts; type: cell-based; details: for fibroblasts viability when treated at the IC50 value in Caco-2: 3a 2.5 µM, 3b 5.1 µM, 2a 12.3 µM, 2b 10.5 µM; for Selectivity Index (SI): IC50 fibroblasts/IC50 Caco-2; for IC50: MTT, mean ± SE
Procedure: (§1) Human Caco-2 cell line (TC7 clone) was kindly provided by Dr. Edith Brot-Laroche (Université Pierre et Marie Curie-Paris 6, UMR S 872, Les Cordeliers, France). Human fibroblast cells were kindly provided by Dr. Julio Montoya (Unidad de Bioquímica, Facultad de Veterinaria, Universidad de Zaragoza, Spain). Caco-2 cells (passages 40–70) and fibroblasts (passages 10–30) were maintained in a humidified atmosphere of 5% CO2 at 37 °C. Cells were grown in Dulbecco’s Modified Eagles medium (DMEM) (Gibco Invitrogen, Paisley, UK) supplemented with 20% fetal bovine serum (FBS), 1% non-essential amino acids, 1% penicillin (1000 U/mL), 1% streptomycin (1000 μg/mL) and 1% amphotericin (250 U/mL). The cells were passaged enzymatically with 0.25% trypsin-1 mM EDTA. Caco-2 cells were sub-cultured on 25 cm^2 plastic flasks at a density of 1.2 × 10^4 cells/cm^2, while fibroblasts were sub-cultured on 75 cm^2 plastic flasks at a density of 1 × 10^4 cells/cm^2. Culture medium was replaced every 2 days.
(§2) Gold complex was diluted in dimethyl sulfoxide (DMSO) to a stock solution at 20 mM and then re-diluted to a working solution at 2.5 mM before diluting it in cell culture medium to treat cells at desired concentrations.
(§3) For cytotoxicity screening assays, Caco-2 cells were seeded in 96-well plates at a density of 4 × 10^3 cells/well. Culture medium was replaced with medium containing drug panel 24 h post-seeding and cells were incubated for 72 h. In fibroblasts, culture medium containing metal gold complexes was added 10 days post-seeding. Antiproliferative effect was measured with MTT assay as previously described by Mármol et al.. Absorbance at 540/620 nm was measured with SPECTROstar Nano (BMG Labtech). To determine the selectivity index (SI) the IC50 value in fibroblasts was divided by IC50 value in Caco-2, obtaining a ratio cancerous/normal cells toxicity.

Caco-2/TC7 cells = assay: MTT cytotoxicity / antiproliferative assay on Caco-2/TC7 cells; type: cell-based, human
Procedure: as §1, with “Human” for “Human Caco-2 cell line (TC7 clone) was kindly provided by Dr. Edith Brot-Laroche (Université Pierre et Marie Curie-Paris 6, UMR S 872, Les Cordeliers, France). Human”, “The cells were passaged enzymatically with 0.25% trypsin-1 mM EDTA.” left out
as §2
The influence of hyperthermia was studied by incubating cells at 40 °C for 1 h immediately after treating them with the gold complexes.
as §3, with “Absorbance at 540/620 nm was measured with SPECTROstar Nano (BMG Labtech).” left out

[2] = 37 °C values rounded, read-out: IC50 values in Caco-2
[3] = 72 h, MTT, 37 °C, mean ± SE, read-out: IC50 Caco-2/TC7 37 °C
[4] = read-out: IC50 Caco-2/TC7 40 °C, 72 h, MTT, 1 h at 40 °C immediately after treatment (hyperthermia), mean ± SE

`CCCCCCCC[N+]12CN3CN(C1)C[P+]([Au-][S]c1ccccn1)(C3)C2.[I-]` [Complex 3a, [Au(C5H5NS)(PTA-CH2(CH2)6CH3)]I] was tested, and the “caspase-3 activation (cells with active caspase-3)” value [1] was “could induce caspase-3 activation”, the “TrxR1 activity related to control” value (Recombinant Human TrxR1) was “Inhibitory effect” and the “mitochondrial depolarisation (cells with reduced ΔΨm)” value (Caco-2 cells) was “induced mitochondrion depolarisation”. For the same compound, the “fibroblasts viability when treated at the IC50 value in Caco-2” value (Human fibroblast cells) was “did not compromise fibroblasts viability”, the “Selectivity Index (SI)” value (Human fibroblast cells) was 4.86 and the IC50 (Human fibroblast cells) was 12.11 ± 0.11 µM. The IC50 (Caco-2/TC7 cells; [2]) was 2.5 µM, the IC50 (Caco-2/TC7 cells; [3]) was 2.49 ± 0.31 µM and the IC50 (Caco-2/TC7 cells; [4]) was 2.05 ± 0.32 µM.

With `FC(F)(F)C(F)(F)C(F)(F)C(F)(F)C(F)(F)C(F)(F)CC[N+]12CN3CN(C1)C[P+]([Au-][S]c1ccccn1)(C3)C2.O=S(=O)([O-])C(F)(F)F` [Complex 3b, [Au(C5H5NS)(PTA-CH2CH2(CF2)5CF3)](TfO)] the “caspase-3 activation (cells with active caspase-3)” value [1] was “could induce caspase-3 activation”, the “TrxR1 activity related to control” value (Recombinant Human TrxR1) was “Inhibitory effect” and the “mitochondrial depolarisation (cells with reduced ΔΨm)” value (Caco-2 cells) was “induced mitochondrion depolarisation”. For the same compound, the “fibroblasts viability when treated at the IC50 value in Caco-2” value (Human fibroblast cells) was “did not compromise fibroblasts viability”, the “Selectivity Index (SI)” value (Human fibroblast cells) was 2.51 and the IC50 (Human fibroblast cells) was 12.8 ± 1.48 µM. For the same compound, the IC50 (Caco-2/TC7 cells; [2]) was 5.1 µM, the IC50 (Caco-2/TC7 cells; [3]) was 5.11 ± 1.25 µM and the IC50 (Caco-2/TC7 cells; [4]) was 4.26 ± 0.34 µM.
